How the values were obtained:
[1] = tested on: Tyrosine-protein kinase ABL1 (Homo sapiens), P00519 [T315I]; test: Inhibition of ABL T315I mutant at 10 uM
[2] = molecular target: ALK tyrosine kinase receptor (Homo sapiens) (UniProt Q9UM73); test: Inhibition of ALK at 10 uM
[3] = molecular target: Ephrin type-A receptor 4 (Homo sapiens) (UniProt P54764); test: Inhibition of EPHA4 at 10 uM
[4] = molecular target: Ephrin type-B receptor 2 (Homo sapiens) (UniProt P29323); test: Inhibition of EPHB2 at 10 uM
[5] = molecular target: Fibroblast growth factor receptor 3 (Homo sapiens) (UniProt P22607); test: Inhibition of FGFR3 at 10 uM
[6] = molecular target: Tyrosine-protein kinase Fyn (Homo sapiens) (UniProt P06241); test: Inhibition of FYN at 10 uM
[7] = molecular target: Insulin receptor (Homo sapiens) (UniProt P06213); test: Inhibition of INSR at 10 uM
[8] = molecular target: Mast/stem cell growth factor receptor Kit (Homo sapiens) (UniProt P10721); test: Inhibition of KIT at 10 uM
[9] = molecular target: Tyrosine-protein kinase Lck (Homo sapiens) (UniProt P06239); test: Inhibition of LCK at 10 uM
[10] = molecular target: Tyrosine-protein kinase Mer (Homo sapiens) (UniProt Q12866); test: Inhibition of MER at 10 uM
[11] = tested on: Platelet-derived growth factor receptor alpha (Homo sapiens), P16234 [V561D]; test: Inhibition of PDGFRa V561D mutant at 10 uM
[12] = molecular target: Aurora kinase A (Homo sapiens) (UniProt O14965); test: Inhibition of AurA at 10 uM
[13] = molecular target: Aurora kinase A/Targeting protein for Xklp2 (Homo sapiens) (UniProt O14965+Q9ULW0); test: Inhibition of AurA-TPX2 at 10 uM; format: protein-complex assay
[14] = molecular target: Bone morphogenetic protein receptor type-1A (Homo sapiens) (UniProt P36894); test: Inhibition of BMPR1A at 10 uM
[15] = molecular target: Calcium/calmodulin-dependent protein kinase type 1D (Homo sapiens) (UniProt Q8IU85); test: Inhibition of CaMK1d at 10 uM
[16] = molecular target: Calcium/calmodulin-dependent protein kinase type II subunit alpha (Homo sapiens) (UniProt Q9UQM7); test: Inhibition of CaMK2a at 10 uM
[17] = molecular target: CDK6/cyclin D3 (Homo sapiens) (UniProt P30281+Q00534); test: Inhibition of CDK6-CycD3 at 10 uM; format: protein-complex assay
[18] = molecular target: CDK9/cyclin T1 (Homo sapiens) (UniProt O60563+P50750); test: Inhibition of CDK9-CycT1 at 10 uM; format: protein-complex assay
[19] = molecular target: Serine/threonine-protein kinase Chk1 (Homo sapiens) (UniProt O14757); test: Inhibition of CHK1 at 10 uM
[20] = molecular target: Casein kinase I isoform gamma-1 (Homo sapiens) (UniProt Q9HCP0); test: Inhibition of CK1g1 at 10 uM
[21] = molecular target: Casein kinase I isoform gamma-2 (Homo sapiens) (UniProt P78368); test: Inhibition of CK1g2 at 10 uM
[22] = molecular target: Casein kinase II alpha/beta (Homo sapiens) (UniProt P67870+P68400); test: Inhibition of CK2a1/b at 10 uM; format: protein-complex assay
[23] = molecular target: Mitogen-activated protein kinase kinase kinase 8 (Homo sapiens) (UniProt P41279); test: Inhibition of COT at 10 uM
[24] = molecular target: Homeodomain-interacting protein kinase 1 (Homo sapiens) (UniProt Q86Z02); test: Inhibition of HIPK1 at 10 uM
[25] = molecular target: Interleukin-1 receptor-associated kinase 4 (Homo sapiens) (UniProt Q9NWZ3); test: Inhibition of IRAK4 at 10 uM
[26] = molecular target: Serine/threonine-protein kinase LATS2 (Homo sapiens) (UniProt Q9NRM7); test: Inhibition of LATS2 at 10 uM
[27] = molecular target: Dual specificity mitogen-activated protein kinase kinase 4 (Homo sapiens) (UniProt P45985); test: Inhibition of MAP2K4 at 10 uM
[28] = molecular target: Dual specificity mitogen-activated protein kinase kinase 6 (Homo sapiens) (UniProt P52564); test: Inhibition of MAP2K6 at 10 uM
[29] = molecular target: Mitogen-activated protein kinase kinase kinase kinase 2 (Homo sapiens) (UniProt Q12851); test: Inhibition of MAP4K2 at 10 uM
[30] = molecular target: MAP/microtubule affinity-regulating kinase 3 (Homo sapiens) (UniProt P27448); test: Inhibition of MARK3 at 10 uM
[31] = molecular target: Serine/threonine-protein kinase MRCK beta (Homo sapiens) (UniProt Q9Y5S2); test: Inhibition of MRCKb at 10 uM
[32] = molecular target: Serine/threonine-protein kinase 4 (Homo sapiens) (UniProt Q13043); test: Inhibition of MST1 at 10 uM
[33] = molecular target: Serine/threonine-protein kinase 38-like (Homo sapiens) (UniProt Q9Y2H1); test: Inhibition of NDR2 at 10 uM
[34] = molecular target: Mitogen-activated protein kinase 13 (Homo sapiens) (UniProt O15264); test: Inhibition of p38delta at 10 uM
[35] = Inhibition of p70S6K at 10 uM
[36] = molecular target: Serine/threonine-protein kinase PAK 1 (Homo sapiens) (UniProt Q13153); test: Inhibition of PAK1 at 10 uM
[37] = molecular target: Phosphorylase b kinase gamma catalytic chain, liver/testis isoform (Homo sapiens) (UniProt P15735); test: Inhibition of PHKG2 at 10 uM
[38] = molecular target: Serine/threonine-protein kinase pim-1 (Homo sapiens) (UniProt P11309); test: Inhibition of PIM1 at 10 uM
[39] = molecular target: Serine/threonine-protein kinase D3 (Homo sapiens) (UniProt O94806); test: Inhibition of PKD3 at 10 uM
[40] = molecular target: Interferon-induced, double-stranded RNA-activated protein kinase (Homo sapiens) (UniProt P19525); test: Inhibition of PKR at 10 uM
[41] = molecular target: Serine/threonine-protein kinase PLK3 (Homo sapiens) (UniProt Q9H4B4); test: Inhibition of PLK3 at 10 uM
[42] = molecular target: cAMP-dependent protein kinase catalytic subunit PRKX (Homo sapiens) (UniProt P51817); test: Inhibition of PRKX at 10 uM
[43] = molecular target: Rho-associated protein kinase 2 (Homo sapiens) (UniProt O75116); test: Inhibition of ROCK2 at 10 uM
[44] = molecular target: Serine/threonine-protein kinase Sgk2 (Homo sapiens) (UniProt Q9HBY8); test: Inhibition of SGK2 at 10 uM
[45] = molecular target: Serine/threonine-protein kinase SIK1 (Homo sapiens) (UniProt P57059); test: Inhibition of SIK at 10 uM
[46] = molecular target: STE20-like serine/threonine-protein kinase (Homo sapiens) (UniProt Q9H2G2); test: Inhibition of SLK at 10 uM
[47] = molecular target: SRSF protein kinase 1 (Homo sapiens) (UniProt Q96SB4); test: Inhibition of SRPK1 at 10 uM
Chain of SRSF protein kinase 1 (Homo sapiens) (Q96SB4 whole entry): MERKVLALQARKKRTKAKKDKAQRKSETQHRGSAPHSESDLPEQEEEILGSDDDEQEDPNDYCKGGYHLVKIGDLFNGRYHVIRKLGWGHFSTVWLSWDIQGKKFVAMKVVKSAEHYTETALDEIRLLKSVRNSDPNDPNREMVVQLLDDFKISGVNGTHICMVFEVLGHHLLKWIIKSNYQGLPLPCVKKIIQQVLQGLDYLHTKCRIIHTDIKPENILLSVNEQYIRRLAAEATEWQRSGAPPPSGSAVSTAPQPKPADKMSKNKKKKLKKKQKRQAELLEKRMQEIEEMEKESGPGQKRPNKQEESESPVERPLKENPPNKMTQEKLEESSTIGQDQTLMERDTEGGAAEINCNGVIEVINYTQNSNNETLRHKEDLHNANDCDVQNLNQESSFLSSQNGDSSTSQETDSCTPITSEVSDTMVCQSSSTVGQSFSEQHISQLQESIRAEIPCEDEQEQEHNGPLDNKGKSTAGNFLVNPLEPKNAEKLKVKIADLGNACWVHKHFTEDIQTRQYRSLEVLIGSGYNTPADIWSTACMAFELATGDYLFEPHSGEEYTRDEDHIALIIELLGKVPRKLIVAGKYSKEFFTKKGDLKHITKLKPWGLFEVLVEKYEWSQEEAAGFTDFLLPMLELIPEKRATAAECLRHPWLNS

Chain of Calcium/calmodulin-dependent protein kinase type 1D (Homo sapiens) (Q8IU85 whole entry, looked up): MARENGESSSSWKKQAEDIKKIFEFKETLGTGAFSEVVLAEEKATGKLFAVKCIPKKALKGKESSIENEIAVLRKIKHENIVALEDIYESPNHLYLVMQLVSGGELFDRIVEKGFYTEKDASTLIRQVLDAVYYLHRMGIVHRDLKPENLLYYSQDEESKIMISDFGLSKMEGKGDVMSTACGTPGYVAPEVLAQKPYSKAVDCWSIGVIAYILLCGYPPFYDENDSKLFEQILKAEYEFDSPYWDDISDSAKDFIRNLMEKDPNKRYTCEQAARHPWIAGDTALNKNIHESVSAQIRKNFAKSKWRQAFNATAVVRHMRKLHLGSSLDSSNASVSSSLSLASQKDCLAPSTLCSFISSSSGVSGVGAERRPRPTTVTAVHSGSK
Chain of Serine/threonine-protein kinase PLK3 (Homo sapiens) (Q9H4B4 whole entry, looked up): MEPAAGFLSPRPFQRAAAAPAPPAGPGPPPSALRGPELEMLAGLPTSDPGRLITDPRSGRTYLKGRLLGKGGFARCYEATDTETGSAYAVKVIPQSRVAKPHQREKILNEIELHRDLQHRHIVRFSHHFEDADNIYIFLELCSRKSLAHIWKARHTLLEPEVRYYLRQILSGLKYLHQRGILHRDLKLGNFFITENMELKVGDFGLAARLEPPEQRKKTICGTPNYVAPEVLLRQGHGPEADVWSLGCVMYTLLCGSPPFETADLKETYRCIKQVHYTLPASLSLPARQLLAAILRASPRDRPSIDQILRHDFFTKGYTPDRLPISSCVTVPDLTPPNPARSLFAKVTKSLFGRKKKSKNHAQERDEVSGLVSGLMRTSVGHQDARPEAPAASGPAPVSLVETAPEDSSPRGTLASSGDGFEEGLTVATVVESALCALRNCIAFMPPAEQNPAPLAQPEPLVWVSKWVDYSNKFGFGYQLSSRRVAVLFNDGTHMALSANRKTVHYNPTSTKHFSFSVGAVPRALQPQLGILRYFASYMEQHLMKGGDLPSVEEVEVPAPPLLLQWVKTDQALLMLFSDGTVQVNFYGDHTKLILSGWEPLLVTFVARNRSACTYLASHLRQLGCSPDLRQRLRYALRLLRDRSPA
Chain of Serine/threonine-protein kinase D3 (Homo sapiens) (O94806 whole entry): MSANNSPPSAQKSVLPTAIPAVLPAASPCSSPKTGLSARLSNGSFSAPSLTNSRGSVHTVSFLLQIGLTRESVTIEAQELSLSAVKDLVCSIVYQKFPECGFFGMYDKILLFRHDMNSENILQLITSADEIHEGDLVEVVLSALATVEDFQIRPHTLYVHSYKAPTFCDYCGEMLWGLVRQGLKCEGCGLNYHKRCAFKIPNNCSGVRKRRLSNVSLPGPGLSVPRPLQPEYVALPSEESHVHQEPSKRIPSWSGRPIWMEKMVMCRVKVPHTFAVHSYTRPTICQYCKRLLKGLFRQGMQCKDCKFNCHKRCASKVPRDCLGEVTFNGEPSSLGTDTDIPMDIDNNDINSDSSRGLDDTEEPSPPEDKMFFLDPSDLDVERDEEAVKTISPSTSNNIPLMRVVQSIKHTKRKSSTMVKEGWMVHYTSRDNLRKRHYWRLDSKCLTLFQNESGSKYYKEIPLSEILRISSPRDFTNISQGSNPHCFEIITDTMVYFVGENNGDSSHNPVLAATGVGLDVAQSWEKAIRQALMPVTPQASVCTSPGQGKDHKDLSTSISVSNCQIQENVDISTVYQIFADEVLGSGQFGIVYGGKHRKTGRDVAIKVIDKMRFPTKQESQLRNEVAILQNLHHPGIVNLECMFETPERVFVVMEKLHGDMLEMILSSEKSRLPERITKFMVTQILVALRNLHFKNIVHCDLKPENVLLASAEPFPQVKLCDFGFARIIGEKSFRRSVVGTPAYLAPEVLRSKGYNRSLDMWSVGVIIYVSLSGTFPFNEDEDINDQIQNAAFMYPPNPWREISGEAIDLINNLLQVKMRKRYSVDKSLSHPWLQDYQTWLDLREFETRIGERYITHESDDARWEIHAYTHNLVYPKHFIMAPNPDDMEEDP
Chain of Mitogen-activated protein kinase 13 (Homo sapiens) (O15264 whole entry): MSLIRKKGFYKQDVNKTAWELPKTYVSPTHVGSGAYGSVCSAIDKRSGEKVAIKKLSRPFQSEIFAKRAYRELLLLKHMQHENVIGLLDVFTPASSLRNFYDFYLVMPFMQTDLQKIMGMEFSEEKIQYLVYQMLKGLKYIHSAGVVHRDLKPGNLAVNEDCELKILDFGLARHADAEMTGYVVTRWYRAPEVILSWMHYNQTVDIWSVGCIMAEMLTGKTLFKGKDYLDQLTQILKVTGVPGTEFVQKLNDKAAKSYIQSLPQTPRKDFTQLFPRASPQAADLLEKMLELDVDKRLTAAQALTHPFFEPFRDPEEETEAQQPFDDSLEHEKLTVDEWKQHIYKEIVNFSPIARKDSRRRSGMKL
Chain of Homeodomain-interacting protein kinase 1 (Homo sapiens) (Q86Z02 whole entry, looked up): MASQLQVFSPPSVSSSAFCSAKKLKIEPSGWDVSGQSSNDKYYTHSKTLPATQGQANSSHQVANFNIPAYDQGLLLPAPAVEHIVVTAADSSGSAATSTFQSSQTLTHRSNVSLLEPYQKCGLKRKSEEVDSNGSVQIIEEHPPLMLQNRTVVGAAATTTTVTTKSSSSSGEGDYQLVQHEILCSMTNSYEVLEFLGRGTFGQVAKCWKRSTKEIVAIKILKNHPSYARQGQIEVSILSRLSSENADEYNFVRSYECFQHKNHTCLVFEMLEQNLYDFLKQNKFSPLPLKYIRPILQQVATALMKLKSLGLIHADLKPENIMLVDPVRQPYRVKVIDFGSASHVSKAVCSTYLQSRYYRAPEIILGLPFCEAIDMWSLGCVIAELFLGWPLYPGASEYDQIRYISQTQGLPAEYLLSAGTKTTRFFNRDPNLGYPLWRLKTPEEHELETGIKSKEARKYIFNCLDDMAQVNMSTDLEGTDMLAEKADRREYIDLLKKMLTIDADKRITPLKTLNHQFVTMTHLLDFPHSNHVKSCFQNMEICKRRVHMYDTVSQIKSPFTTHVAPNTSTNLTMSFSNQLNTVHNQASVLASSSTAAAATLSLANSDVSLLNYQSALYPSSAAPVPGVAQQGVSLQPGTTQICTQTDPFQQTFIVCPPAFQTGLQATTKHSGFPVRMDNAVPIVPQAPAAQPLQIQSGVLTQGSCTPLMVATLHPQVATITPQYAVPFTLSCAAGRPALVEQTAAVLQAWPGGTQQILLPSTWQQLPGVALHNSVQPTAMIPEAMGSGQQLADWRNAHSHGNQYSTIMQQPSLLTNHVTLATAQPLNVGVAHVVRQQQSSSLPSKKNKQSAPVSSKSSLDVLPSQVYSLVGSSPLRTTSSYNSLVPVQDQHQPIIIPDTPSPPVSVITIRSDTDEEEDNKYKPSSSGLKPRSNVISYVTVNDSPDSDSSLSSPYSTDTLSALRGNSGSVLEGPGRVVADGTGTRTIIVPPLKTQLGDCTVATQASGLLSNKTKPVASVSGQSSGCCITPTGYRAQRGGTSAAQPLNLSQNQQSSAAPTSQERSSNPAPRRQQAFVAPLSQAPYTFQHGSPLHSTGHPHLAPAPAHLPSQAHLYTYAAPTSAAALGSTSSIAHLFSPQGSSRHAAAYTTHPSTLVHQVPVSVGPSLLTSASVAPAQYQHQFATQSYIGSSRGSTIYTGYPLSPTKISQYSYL
Chain of Tyrosine-protein kinase Lck (Homo sapiens) (P06239 2-509 limits assumed): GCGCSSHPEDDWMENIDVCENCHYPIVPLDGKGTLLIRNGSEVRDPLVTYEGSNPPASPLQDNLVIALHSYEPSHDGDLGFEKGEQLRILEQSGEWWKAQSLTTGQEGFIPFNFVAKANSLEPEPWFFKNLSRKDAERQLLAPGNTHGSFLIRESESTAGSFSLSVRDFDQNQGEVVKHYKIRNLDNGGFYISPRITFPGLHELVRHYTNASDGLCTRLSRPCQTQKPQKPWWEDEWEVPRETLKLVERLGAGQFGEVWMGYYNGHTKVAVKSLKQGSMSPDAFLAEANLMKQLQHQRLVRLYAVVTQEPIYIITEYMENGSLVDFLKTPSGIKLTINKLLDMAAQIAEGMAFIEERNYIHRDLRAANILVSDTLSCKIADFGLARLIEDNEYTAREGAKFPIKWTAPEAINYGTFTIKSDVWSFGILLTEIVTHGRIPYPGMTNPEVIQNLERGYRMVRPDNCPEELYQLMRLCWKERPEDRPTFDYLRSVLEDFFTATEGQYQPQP
Chain of Serine/threonine-protein kinase Sgk2 (Homo sapiens) (Q9HBY8 whole entry): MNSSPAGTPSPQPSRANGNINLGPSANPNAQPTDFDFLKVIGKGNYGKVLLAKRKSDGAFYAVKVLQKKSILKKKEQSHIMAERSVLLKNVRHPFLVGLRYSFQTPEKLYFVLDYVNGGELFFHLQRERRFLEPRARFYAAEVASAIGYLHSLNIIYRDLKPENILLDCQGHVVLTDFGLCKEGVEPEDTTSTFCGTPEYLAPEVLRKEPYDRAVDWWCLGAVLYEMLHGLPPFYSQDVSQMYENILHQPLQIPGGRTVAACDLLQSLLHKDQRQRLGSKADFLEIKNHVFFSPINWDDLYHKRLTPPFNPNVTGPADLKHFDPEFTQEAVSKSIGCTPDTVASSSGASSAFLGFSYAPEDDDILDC

`COc1ccc2c3ccnc(C(F)(F)F)c3n(CCCCN)c2c1` gave an inhibition [1] of 0%, an inhibition [2] of 5% and an inhibition [3] of 0%. For the same compound, the inhibition [4] was 0%, the inhibition [5] was 1% and the inhibition [6] was 8%. It also gave an inhibition [7] of 0%, an inhibition [8] of 10% and an inhibition [9] of 11%. It also gave an inhibition [10] of 35%, an inhibition [11] of 31% and an inhibition [12] of 0%. It also gave an inhibition [13] of 0%, an inhibition [14] of 35% and an inhibition [15] of 4%. The inhibition [16] was 53%, the inhibition [17] was 28% and the inhibition [18] was 79%. For the same compound, the inhibition [19] was 25%, the inhibition [20] was 66% and the inhibition [21] was 60%. For the same compound, the inhibition [22] was 0%, the inhibition [23] was 7% and the inhibition [24] was 41%. The inhibition [25] was 16%, the inhibition [26] was 26% and the inhibition [27] was 10%. The inhibition [28] was 46%, the inhibition [29] was 75% and the inhibition [30] was 47%. It also gave an inhibition [31] of 27%, an inhibition [32] of 14% and an inhibition [33] of 2%. For the same compound, the inhibition [34] was 25%, the inhibition [35] was 76% and the inhibition [36] was 3%. It also gave an inhibition [37] of 26%, an inhibition [38] of 91% and an inhibition [39] of 92%. It also gave an inhibition [40] of 6%, an inhibition [41] of 10% and an inhibition [42] of 14%. The inhibition [43] was 87%, the inhibition [44] was 20% and the inhibition [45] was 8%. The inhibition [46] was 20% and the inhibition [47] was 7%.

Source: ChEMBL document CHEMBL2010722, “Structure-activity relationship study of beta-carboline derivatives as haspin kinase inhibitors” (Bioorg Med Chem Lett, 2012)
